# Assay results: paper PMC5079539 (Organic & biomolecular chemistry, 2016)
# Read-outs that look alike come from different tables or passages of the source.
# Legend:
# [1] = test system: cell line ET (luc-ubi-neo/ET), Huh7 human hepatoma cell line
# HCV 1b replicon = test: Secondary HCV antiviral assay: qRT-PCR; type: cell-based
# [2] = Metabolic stability assay; type: in vitro ADME, human
# [3] = test system: cell line ET (luc-ubi-neo/ET), Huh7 human hepatoma cell line; test: Cytotoxicity in secondary assay; settings: cellular ribosomal RNA as cytotoxicity control
# [4] = cited from earlier work
# in vitro = settings: human
# [5] = Cytotoxicity in secondary assay; settings: human
# [6] = qRT-PCR (TaqMan) of HCV RNA, single assay, quadruplicate wells
# [7] = human liver microsomes, 0.1 µM, NADPH-regenerating system, 37 °C, mean of two independent experiments
Compound,CC50 [1],EC50 (HCV 1b replicon; [6]),EC90 (HCV 1b replicon; [6]),"Clint ([2]; human, microsomes)","T1/2 ([2]; human, microsomes)",CC50 [3],other results
"C[C@@]1(O)[C@H](O)[C@@H](CO)O[C@H]1n1ccc(=O)[nH]c1=O [2’-C-Me-uridine, reference compound]",> 100 µM,,,,,,
"COC(=O)CC[C@H](NP(=O)(OC[C@H]1O[C@@H](n2ccc(=O)[nH]c2=O)[C@](C)(O)[C@@H]1O)Oc1ccccc1)C(=O)OC (stereo partly drawn) [31a, 2′-C-Methyl-uridine-5′-[phenylbis(methoxy-L-glutamyl)]phosphate]",> 20 µM,,,,,,
"CC(C)CCOC(=O)CC[C@H](NP(=O)(OC[C@H]1O[C@@H](n2ccc(=O)[nH]c2=O)[C@](C)(O)[C@@H]1O)Oc1ccccc1)C(=O)OCCC(C)C (stereo partly drawn) [31b, 2′-C-Methyl-uridine-5′-[phenylbis(isoamyl-L-glutamyl)]phosphate]",> 20 µM,10 nM,130 nM,844.60 µl/min/mg protein,8 min,9.98 µM,
"COC(=O)[C@H](COCc1ccccc1)NP(=O)(OC[C@H]1O[C@@H](n2ccc(=O)[nH]c2=O)[C@](C)(O)[C@@H]1O)Oc1ccccc1 (stereo partly drawn) [31c, 2′-C-Methyl-uridine-5′-[phenyl(α-methoxy-β-O-benzyl-L-serine)]phosphate]",> 20 µM,,,,,,
"CCCCCOC(=O)[C@H](COCc1ccccc1)NP(=O)(OC[C@H]1O[C@@H](n2ccc(=O)[nH]c2=O)[C@](C)(O)[C@@H]1O)Oc1ccccc1 (stereo partly drawn) [31d, 2′-C-Methyl-uridine-5′-[phenyl(α-amyl-β-O-benzyl-L-serine)]phosphate]",5.89 µM,,,496.80 µl/min/mg protein,14 min,,
"CC(C)CCOC(=O)[C@H](COCc1ccccc1)NP(=O)(OC[C@H]1O[C@@H](n2ccc(=O)[nH]c2=O)[C@](C)(O)[C@@H]1O)Oc1ccccc1 (stereo partly drawn) [31e, 2′-C-Methyl-uridine-5′-[phenyl(α-isoamyl-β-O-benzyl-L-serine)]phosphate]",8 µM,10 nM,80 nM,,,4.59 µM,
"COC(=O)[C@H](COC(=O)C(C)C)NP(=O)(OC[C@H]1O[C@@H](n2ccc(=O)[nH]c2=O)[C@](C)(O)[C@@H]1O)Oc1ccccc1 (stereo partly drawn) [31f, 2′-C-Methyl-uridine-5′-[phenyl(α-methoxy-β-O-isobutyryl-L-serine)]phosphate]",> 20 µM,,,,,,
"CCCCCOC(=O)[C@H](COC(=O)C(C)C)NP(=O)(OC[C@H]1O[C@@H](n2ccc(=O)[nH]c2=O)[C@](C)(O)[C@@H]1O)Oc1ccccc1 (stereo partly drawn) [31g, 2′-C-Methyl-uridine-5′-[phenyl(α-amyl-β-O-isobutyryl-L-serine)]phosphate]",6.79 µM,,,,,,
"CC(C)CCOC(=O)[C@H](COC(=O)C(C)C)NP(=O)(OC[C@H]1O[C@@H](n2ccc(=O)[nH]c2=O)[C@](C)(O)[C@@H]1O)Oc1ccccc1 (stereo partly drawn) [31h, 2′-C-Methyl-uridine-5′-[phenyl(α-isoamyl-β-O-isobutyryl-L-serine)]phosphate]",7.51 µM,20 nM,130 nM,763.70 µl/min/mg protein,9 min,5.28 µM,
"CC(C)CCOC(=O)[C@@H](NP(=O)(OC[C@H]1O[C@@H](n2ccc(=O)[nH]c2=O)[C@](C)(O)[C@@H]1O)Oc1ccccc1)[C@@H](C)OCc1ccccc1 (stereo partly drawn) [31i, 2′-C-Methyl-uridine-5′-[phenyl(isoamyl-O-benzyl-L-threonine)]phosphate]",> 20 µM,40 nM,690 nM,699.00 µl/min/mg protein,10 min,7.27 µM,
"CC(C)CCOC(=O)[C@@H](NP(=O)(OC[C@H]1O[C@@H](n2ccc(=O)[nH]c2=O)[C@](C)(O)[C@@H]1O)Oc1ccccc1)[C@@H](C)OC(=O)C(C)C (stereo partly drawn) [31j, 2′-C-Methyl-uridine-5′-[phenyl(isoamyl-O-isobutyryl-L-threonine)]phosphate]",11.5 µM,,,,,,
"CC(C)CCOC(=O)[C@H](Cc1ccc(OC(=O)C(C)C)cc1)NP(=O)(OCC1OC(n2ccc(=O)[nH]c2=O)C(C)(O)C1O)Oc1ccccc1 (stereo partly drawn) [31k, 2′-C-Methyl-uridine-5′-[phenyl(isoamyl-O-isobutyryl-L-tyrosine)]phosphate]",,40 nM,690 nM,,,18.4 µM,"Clint [2, 7]: 679.60 µl/min/mg protein; T1/2 [2, 7]: 10 min; CC50 ([1]; concentration decreasing cell viability by 50%, 72 hrs, CytoTox-ONE): > 20 µM"
"CC(C)OC(=O)[C@H](C)N[P@](=O)(OC[C@H]1O[C@@H](n2ccc(=O)[nH]c2=O)[C@](C)(F)[C@@H]1O)Oc1ccccc1 [Sofosbuvir, reference compound]",,,,,,,EC50 (HCV 1b replicon; Hepatitis C virus): 70 nM; EC90 (HCV 1b replicon; Hepatitis C virus): 280 nM; cytotoxicity (devoid up to) [4]: > 100 µM; CC50 (in vitro): > 5 µM; CC50 [5]: > 5 µM
